The record followed here is paper PMC5443055 (Human Vaccines & Immunotherapeutics, 2014).

This assay deals with splenocytes of immunized HLA DR3 tg mice. As to the kind of experiment: Th1/Th2/Th17 cytokine bead array. The settings on record: ConA 2 μg/mL, positive control, consistent between arms. In kind it is cell-based, mouse (HLA DR3 transgenic).

For the substance Concanavalin A [ConA], where the note is “highest of panel”, the “IFNγ concentration above background” value turned out to be 260 pg/mL. Moreover, the “IL-4 concentration above background” value (lowest of panel) came to 16 pg/mL.
